Results published in patent publication US20230255966A1, “A COMBINATION OF A CBP/P300 BROMODOMAIN INHIBITOR AND AN EGFR INHIBITOR FOR USE IN TREATING EGFR-MUTANT NSCLC” (TOLREMO THERAPEUTICS AG, priority 2020, published 2023).

What was measured:
Test in all cases: BROMOscan BromoKdMAX
Type in all cases: binding
FALZ = biological target: T1, FALZ (Homo sapiens, UniProt Q12830)
T1 construct: T7 phage strains displaying bromodomains were grown in parallel; purchased DiscoverX (BROMOscan / BromoKdMAX service); host or cells: T7 phage in E. coli host derived from BL21
Description: (§1) A BromoKdMAX was performed at DiscoverX.
(§2) The assay principle is the following: BROMOscan™ is a novel industry leading platform for identifying small molecule bromodomain inhibitors. Based on proven KINOMEscan™ technology, BRO-MOscan™ employs a proprietary ligand binding site-directed competition assay to quantitatively measure interactions between test compounds and bromodomains. This robust and reliable assay panel is suitable for high throughput screening and delivers quantitative ligand binding data to facilitate the identification and optimization of potent and selective small molecule bromodomain inhibitors.
(§3) The assay was conducted as follows: For the Bromodomain assays, T7 phage strains displaying bromodomains were grown in parallel in 24-well blocks in an E. coli host derived from the BL21 strain. E. coli were grown to log-phase and infected with T7 phage from a frozen stock (multiplicity of infection=0.4) and incubated with shaking at 32° C. until lysis (90-150 minutes). The lysates were centrifuged (5,000×g) and filtered (0.2 μm) to remove cell debris. […] The liganded beads were blocked with excess biotin and washed with blocking buffer (SeaBlock (Pierce), 1% BSA, 0.05% Tween 20, 1 mM DTT) to remove unbound ligand and to reduce non-specific phage binding. […] Test compounds were prepared as 1000× stocks in 100% DMSO. Kds were determined using an 11-point 3-fold compound dilution series with one DMSO control point. […] The compounds were then diluted directly into the assays such that the final concentration of DMSO was 0.09%. All reactions performed in polypropylene 384-well plates. Each was a final volume of 0.02 ml. […] The bromodomain concentration in the eluates was measured by qPCR.

BRD1 = biological target: T2, BRD1 (Homo sapiens, UniProt O95696)
T2 construct: T7 phage strains displaying bromodomains were grown in parallel; purchased DiscoverX; host or cells: T7 phage in E. coli host derived from BL21
Description: as §1, §2, §3

SMARCA4 = biological target: T3, SMARCA4 (Homo sapiens, UniProt P51532)
T3 construct: T7 phage strains displaying bromodomains were grown in parallel; purchased DiscoverX (BROMOscan / BromoKdMAX service); host or cells: T7 phage in E. coli host derived from BL21
Description: as §1, §2, §3

PBRM1(5) = biological target: T4, PBRM1(5) (Homo sapiens, UniProt Q86U86)
T4 construct: T7 phage strains displaying bromodomains were grown in parallel; purchased DiscoverX (BROMOscan / BromoKdMAX service); host or cells: T7 phage in E. coli host derived from BL21
Description: as §1, §2, §3

PBRM1(2) = biological target: T5, PBRM1(2) (Homo sapiens, UniProt Q86U86)
T5 construct: T7 phage strains displaying bromodomains were grown in parallel; purchased DiscoverX (BROMOscan / BromoKdMAX service); host or cells: T7 phage in E. coli host derived from BL21
Description: as §1, §2, §3

BAZ2B = biological target: T6, BAZ2B (Homo sapiens, UniProt Q9UIF8)
T6 construct: T7 phage strains displaying bromodomains were grown in parallel; purchased DiscoverX; host or cells: T7 phage in E. coli host derived from BL21
Description: as §1, §2, §3

TRIM33(PHD, Bromo.) = biological target: T7, TRIM33(PHD, Bromo.) (Homo sapiens, UniProt Q9UPN9)
T7 construct: TRIM33(PHD, Bromo.)
Description: as §1, §2, §3

BRD2(1) = biological target: T8, BRD2(1) (Homo sapiens, UniProt P25440)
T8 construct: T7 phage strains displaying bromodomains were grown in parallel; purchased DiscoverX; host or cells: T7 phage in E. coli host derived from BL21
Description: as §1
(§4) The assay principle is the following: BROMOscan™ is a novel industry leading platform for identifying small molecule bromodomain inhibitors. Based on proven KINOMEscan™ technology, BRO-MOscan™ employs a proprietary ligand binding site-directed competition assay to quantitatively measure interactions between test compounds and bromodomains.
as §3

TRIM24(Bromo.) = biological target: T9, TRIM24(Bromo.) (Homo sapiens, UniProt O15164)
T9 construct: TRIM24(Bromo.); purchased DiscoverX (BROMOscan / BromoKdMAX service); host or cells: T7 phage in E. coli host derived from BL21
Description: as §1, §4, §3

BRDT(1, 2) = biological target: T10, BRDT(1, 2) (Homo sapiens, UniProt Q58F21)
T10 construct: T7 phage strains displaying bromodomains were grown in parallel; purchased DiscoverX; host or cells: T7 phage in E. coli host derived from BL21
Description: as §1, §4, §3

BRDT(2) = biological target: T11, BRDT(2) (Homo sapiens, UniProt Q58F21)
T11 construct: T7 phage strains displaying bromodomains were grown in parallel; purchased DiscoverX; host or cells: T7 phage in E. coli host derived from BL21
Description: as §1, §4, §3

[1] = biological target: T12, BRD4(full-length, short-iso.) (Homo sapiens, UniProt O60885)
T12 construct: BRD4 (full-length, short-iso.); purchased DiscoverX; host or cells: T7 phage in E. coli host derived from BL21 (general protocol)
Description: as §1, §4, §3

TAF1(2) = biological target: T13, TAF1(2) (Homo sapiens, UniProt P21675)
T13 construct: T7 phage strains displaying bromodomains were grown in parallel; purchased DiscoverX (BROMOscan / BromoKdMAX service); host or cells: T7 phage in E. coli host derived from BL21
Description: as §1, §4, §3

BRDT(1) = biological target: T14, BRDT(1) (Homo sapiens, UniProt Q58F21)
T14 construct: T7 phage strains displaying bromodomains were grown in parallel; purchased DiscoverX; host or cells: T7 phage in E. coli host derived from BL21
Description: as §1, §4, §3

BRD2(2) = biological target: T15, BRD2(2) (Homo sapiens, UniProt P25440)
T15 construct: T7 phage strains displaying bromodomains were grown in parallel; purchased DiscoverX; host or cells: T7 phage in E. coli host derived from BL21
Description: as §1, §4, §3

TRIM24(PHD, Bromo.) = biological target: T16, TRIM24(PHD, Bromo.) (Homo sapiens, UniProt O15164)
T16 construct: TRIM24(PHD, Bromo.); purchased DiscoverX (BROMOscan / BromoKdMAX service); host or cells: T7 phage in E. coli host derived from BL21
Description: as §1, §4, §3

BRD8(2) = biological target: T17, BRD8(2) (Homo sapiens, UniProt Q9H0E9)
T17 construct: T7 phage strains displaying bromodomains were grown in parallel; purchased DiscoverX; host or cells: T7 phage in E. coli host derived from BL21
Description: as §1, §4, §3

BRPF1 = biological target: T18, BRPF1 (Homo sapiens, UniProt P55201)
T18 construct: T7 phage strains displaying bromodomains were grown in parallel; purchased DiscoverX; host or cells: T7 phage in E. coli host derived from BL21
Description: as §1, §4, §3

PCAF = biological target: T19, PCAF (Homo sapiens, UniProt Q92831)
T19 construct: T7 phage strains displaying bromodomains were grown in parallel; purchased DiscoverX (BROMOscan / BromoKdMAX service); host or cells: T7 phage in E. coli host derived from BL21
Description: as §1, §4, §3

BRD8(1) = biological target: T20, BRD8(1) (Homo sapiens, UniProt Q9H0E9)
T20 construct: T7 phage strains displaying bromodomains were grown in parallel; purchased DiscoverX; host or cells: T7 phage in E. coli host derived from BL21
Description: as §1, §4, §3

BRD9 = biological target: T21, BRD9 (Homo sapiens, UniProt Q9H8M2)
T21 construct: T7 phage strains displaying bromodomains were grown in parallel; purchased DiscoverX; host or cells: T7 phage in E. coli host derived from BL21
Description: as §1, §4, §3

BRD7 = biological target: T22, BRD7 (Homo sapiens, UniProt Q9NPI1)
T22 construct: T7 phage strains displaying bromodomains were grown in parallel; purchased DiscoverX; host or cells: T7 phage in E. coli host derived from BL21
Description: as §1, §4, §3

BRD4(1) = biological target: T23, BRD4(1) (Homo sapiens, UniProt O60885)
T23 construct: T7 phage strains displaying bromodomains were grown in parallel; purchased DiscoverX; host or cells: T7 phage in E. coli host derived from BL21
Description: as §1, §4, §3

BRD4(2) = biological target: T24, BRD4(2) (Homo sapiens, UniProt O60885)
T24 construct: T7 phage strains displaying bromodomains were grown in parallel; purchased DiscoverX; host or cells: T7 phage in E. coli host derived from BL21
Description: as §1, §4, §3

TAF1L(2) = biological target: T25, TAF1L(2) (Homo sapiens, UniProt Q8IZX4)
T25 construct: T7 phage strains displaying bromodomains were grown in parallel; purchased DiscoverX (BROMOscan / BromoKdMAX service); host or cells: T7 phage in E. coli host derived from BL21
Description: as §1, §4, §3

BRD2(1, 2) = biological target: T26, BRD2(1, 2) (Homo sapiens, UniProt P25440)
T26 construct: T7 phage strains displaying bromodomains were grown in parallel; purchased DiscoverX; host or cells: T7 phage in E. coli host derived from BL21
Description: as §1, §4, §3

WDR9(2) = biological target: T27, WDR9(2) (Homo sapiens, UniProt Q9NSI6)
T27 construct: T7 phage strains displaying bromodomains were grown in parallel; purchased DiscoverX (BROMOscan / BromoKdMAX service); host or cells: T7 phage in E. coli host derived from BL21
Description: as §1, §4, §3

T21 sequence (Q9H8M2 136-240 limits assumed): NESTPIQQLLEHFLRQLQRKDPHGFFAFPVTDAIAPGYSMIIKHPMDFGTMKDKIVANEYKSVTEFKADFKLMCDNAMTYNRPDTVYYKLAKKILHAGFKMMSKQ
T20 sequence (Q9H0E9 706-811 limits assumed): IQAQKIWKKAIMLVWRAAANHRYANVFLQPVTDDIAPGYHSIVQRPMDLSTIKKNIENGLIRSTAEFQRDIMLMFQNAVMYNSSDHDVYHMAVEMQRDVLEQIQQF
T6 sequence (Q9UIF8 2060-2164 limits assumed): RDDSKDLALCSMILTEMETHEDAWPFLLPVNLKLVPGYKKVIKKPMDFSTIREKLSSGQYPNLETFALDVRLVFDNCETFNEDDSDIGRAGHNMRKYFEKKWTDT
T3 sequence (P51532 1453-1564 limits assumed): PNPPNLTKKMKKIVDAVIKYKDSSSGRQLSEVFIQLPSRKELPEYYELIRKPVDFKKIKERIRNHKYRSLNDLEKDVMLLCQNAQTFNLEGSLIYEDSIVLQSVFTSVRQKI
T26 sequence (P25440 71-455 limits assumed): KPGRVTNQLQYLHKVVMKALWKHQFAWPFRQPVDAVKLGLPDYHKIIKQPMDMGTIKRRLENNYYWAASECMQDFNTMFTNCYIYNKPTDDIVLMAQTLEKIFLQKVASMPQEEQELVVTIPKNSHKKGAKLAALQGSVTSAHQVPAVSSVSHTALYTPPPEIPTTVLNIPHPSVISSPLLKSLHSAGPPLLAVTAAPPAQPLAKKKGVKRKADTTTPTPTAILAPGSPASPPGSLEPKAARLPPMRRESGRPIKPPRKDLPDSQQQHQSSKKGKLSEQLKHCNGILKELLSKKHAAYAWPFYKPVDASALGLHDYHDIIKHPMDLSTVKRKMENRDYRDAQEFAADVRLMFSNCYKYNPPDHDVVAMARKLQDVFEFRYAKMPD
T13 sequence (P21675 1519-1628 limits assumed): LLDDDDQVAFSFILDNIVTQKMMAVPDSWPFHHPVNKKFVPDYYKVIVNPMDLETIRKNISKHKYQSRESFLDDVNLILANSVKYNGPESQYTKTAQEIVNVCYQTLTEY
T17 sequence (Q9H0E9 1099-1207 limits assumed): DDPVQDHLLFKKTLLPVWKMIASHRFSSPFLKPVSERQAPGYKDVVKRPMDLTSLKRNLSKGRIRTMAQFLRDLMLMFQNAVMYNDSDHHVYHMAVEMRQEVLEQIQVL
T7 sequence (Q9UPN9 whole entry): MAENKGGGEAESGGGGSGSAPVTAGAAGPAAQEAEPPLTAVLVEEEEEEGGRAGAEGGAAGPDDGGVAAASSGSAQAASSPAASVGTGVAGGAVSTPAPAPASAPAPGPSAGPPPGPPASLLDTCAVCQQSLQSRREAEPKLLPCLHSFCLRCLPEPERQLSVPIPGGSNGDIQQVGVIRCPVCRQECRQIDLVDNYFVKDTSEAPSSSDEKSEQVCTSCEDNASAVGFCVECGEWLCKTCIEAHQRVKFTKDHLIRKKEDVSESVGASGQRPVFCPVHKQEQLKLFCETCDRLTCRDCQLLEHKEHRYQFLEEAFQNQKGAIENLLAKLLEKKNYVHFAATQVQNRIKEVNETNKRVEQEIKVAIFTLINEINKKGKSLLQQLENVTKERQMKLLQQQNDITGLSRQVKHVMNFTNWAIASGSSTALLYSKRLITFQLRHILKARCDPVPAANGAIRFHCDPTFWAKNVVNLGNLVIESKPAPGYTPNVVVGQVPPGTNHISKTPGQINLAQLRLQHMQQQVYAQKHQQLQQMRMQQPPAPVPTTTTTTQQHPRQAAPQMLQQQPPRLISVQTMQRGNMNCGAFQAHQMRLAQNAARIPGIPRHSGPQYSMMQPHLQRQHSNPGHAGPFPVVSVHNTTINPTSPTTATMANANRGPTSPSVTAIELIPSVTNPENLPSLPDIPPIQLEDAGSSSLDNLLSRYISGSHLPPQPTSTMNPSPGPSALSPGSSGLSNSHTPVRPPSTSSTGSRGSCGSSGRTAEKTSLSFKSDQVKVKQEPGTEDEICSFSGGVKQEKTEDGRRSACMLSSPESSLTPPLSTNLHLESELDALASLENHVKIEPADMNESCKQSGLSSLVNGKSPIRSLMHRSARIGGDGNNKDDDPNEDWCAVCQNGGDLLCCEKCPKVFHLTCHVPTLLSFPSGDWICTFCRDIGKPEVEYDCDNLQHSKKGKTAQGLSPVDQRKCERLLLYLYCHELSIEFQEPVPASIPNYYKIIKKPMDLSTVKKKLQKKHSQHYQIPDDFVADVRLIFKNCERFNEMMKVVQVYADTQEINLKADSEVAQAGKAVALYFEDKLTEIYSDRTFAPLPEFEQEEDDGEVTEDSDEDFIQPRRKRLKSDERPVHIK
T18 sequence (P55201 628-732 limits assumed): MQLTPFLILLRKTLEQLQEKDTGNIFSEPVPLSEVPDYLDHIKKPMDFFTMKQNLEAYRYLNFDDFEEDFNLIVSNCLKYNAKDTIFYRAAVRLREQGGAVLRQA
T4 sequence (Q86U86 653-763 limits assumed): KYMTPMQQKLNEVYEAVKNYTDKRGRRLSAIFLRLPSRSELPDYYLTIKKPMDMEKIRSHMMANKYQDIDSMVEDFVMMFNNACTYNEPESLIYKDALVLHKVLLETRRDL
T8 sequence (P25440 74-180 limits assumed): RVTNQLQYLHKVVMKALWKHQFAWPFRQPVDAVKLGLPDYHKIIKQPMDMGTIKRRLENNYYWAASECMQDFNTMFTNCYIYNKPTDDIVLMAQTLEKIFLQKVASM
T25 sequence (Q8IZX4 1517-1626 limits assumed): as the sequence (P21675 1519-1628 limits assumed) above, with V46M, M51V, V102I, L107I counted along it
T15 sequence (P25440 344-453 limits assumed): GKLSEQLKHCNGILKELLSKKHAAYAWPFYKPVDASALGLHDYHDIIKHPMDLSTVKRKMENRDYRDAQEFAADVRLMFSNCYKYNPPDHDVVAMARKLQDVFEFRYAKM
T9 sequence (O15164 899-1004 limits assumed): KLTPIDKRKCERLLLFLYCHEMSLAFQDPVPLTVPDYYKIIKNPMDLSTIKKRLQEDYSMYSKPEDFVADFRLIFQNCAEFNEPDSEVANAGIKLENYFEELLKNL
T19 sequence (Q92831 723-827 limits assumed): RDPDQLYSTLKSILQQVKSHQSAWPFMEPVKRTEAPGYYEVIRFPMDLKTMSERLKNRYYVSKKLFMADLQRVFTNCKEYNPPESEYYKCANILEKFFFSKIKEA
T2 sequence (O95696 562-666 limits assumed): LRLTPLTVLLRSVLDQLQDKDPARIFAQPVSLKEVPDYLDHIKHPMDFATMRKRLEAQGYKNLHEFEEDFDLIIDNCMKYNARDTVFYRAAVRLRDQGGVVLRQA
T22 sequence (Q9NPI1 131-235 limits assumed): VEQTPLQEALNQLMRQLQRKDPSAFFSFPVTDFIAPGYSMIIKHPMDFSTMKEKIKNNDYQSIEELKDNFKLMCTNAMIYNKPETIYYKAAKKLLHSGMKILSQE
T5 sequence (Q86U86 177-287 limits assumed): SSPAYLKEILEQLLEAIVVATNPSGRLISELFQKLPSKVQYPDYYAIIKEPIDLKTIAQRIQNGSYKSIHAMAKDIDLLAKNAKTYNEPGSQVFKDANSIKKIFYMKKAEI
T16 sequence (O15164 824-1006 limits assumed): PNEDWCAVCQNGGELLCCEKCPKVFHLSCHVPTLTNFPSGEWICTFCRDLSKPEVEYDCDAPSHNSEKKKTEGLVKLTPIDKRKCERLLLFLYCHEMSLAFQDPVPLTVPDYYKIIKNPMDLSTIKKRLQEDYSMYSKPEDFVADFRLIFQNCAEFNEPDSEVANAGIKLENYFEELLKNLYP
T27 sequence (Q9NSI6 1313-1418 limits assumed): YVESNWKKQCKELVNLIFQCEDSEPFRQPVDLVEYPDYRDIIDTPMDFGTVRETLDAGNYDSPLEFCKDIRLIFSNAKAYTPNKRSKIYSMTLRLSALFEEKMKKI

In the case of `CO[C@H]1CC[C@H](n2c([C@@H]3CCCC(=O)N3c3ccc(F)c(F)c3)nc3cc(-c4c(C)noc4C)ccc32)CC1` [CCS1477], the Kd (FALZ) is reported as 5500 nM, the Kd (BRD1) is reported as > 10000 nM and the Kd (SMARCA4) is reported as > 10000 nM. For the same compound, the Kd (PBRM1(5)) was 3100 nM, the Kd (PBRM1(2)) was > 10000 nM and the Kd (BAZ2B) was > 10000 nM. For the same compound, the Kd (TRIM33(PHD, Bromo.)) was > 10000 nM, the Kd (BRD2(1)) was 230 nM and the Kd (TRIM24(Bromo.)) was 680 nM. For the same compound, the Kd (BRDT(1, 2)) was 2400 nM, the Kd (BRDT(2)) was 8900 nM and the Kd [1] was 440 nM. The Kd (TAF1(2)) was 7900 nM, the Kd (BRDT(1)) was 390 nM and the Kd (BRD2(2)) was 2100 nM. The Kd (TRIM24(PHD, Bromo.)) was 1900 nM, the Kd (BRD8(2)) was > 10000 nM and the Kd (BRPF1) was 1400 nM. The Kd (PCAF) was > 10000 nM, the Kd (BRD8(1)) was > 10000 nM and the Kd (BRD9) was 790 nM. For the same compound, the Kd (BRD7) was 5100 nM, the Kd (BRD4(1)) was 250 nM and the Kd (BRD4(2)) was 5200 nM. The Kd (TAF1L(2)) was > 10000 nM, the Kd (BRD2(1, 2)) was 610 nM and the Kd (WDR9(2)) was > 10000 nM.
